Laboratory results reported in US9428464B2, “Kynurenine-3-monooxygenase inhibitors, pharmaceutical compositions, and methods of use thereof” (CHDI Foundation, Inc., priority 2011, dated 2016).

Test system: KMO
Assay: KMO activity assay: L-Kynurenine hydroxylation to 3-Hydroxy-Kynurenine, quantified by LC/MS
Assay type: biochemical
Conditions: compound at 10 uM; footnote: some portion of activity of amides may be due to contribution of acid precursor
Description: A generalized procedure for monitoring L-Kynurenine (KYN) hydroxylation to form product 3-Hydroxy-Kynurenine (3OH-KYN) by LC/MS is described below. Product is quantified by multiple reaction monitoring using MS.
A method of monitoring L-Kynurenine (KYN) hydroxylation to form product 3-Hydroxy-Kynurenine (3OH-KYN) by LC/MS is described below. Product is quantified by multiple reaction monitoring.
• Compound: Stock concentrations: 10 mM in 100% DMSO • Enzyme: KMO enzyme prepared at Evotec via mitochondria isolation from CHO-GST HIS KMO cells • Substrate: L-Kynurenine (Sigma: Cat #K3750) • [stock concentration: 10 mM in 100 mM potassium phosphate buffer, pH 7.4]
A method of monitoring L-Kynurenine (KYN) hydroxylation to form 3-Hydroxy-Kynurenine (3OH-KYN) by LC/MS is described. Product is quantified by multiple reaction monitoring (MRM method).

Structure (SMILES) | % Inhibition at 10 uM
C[C@@H](CO)NC(=O)c1cc(-c2ccc(Cl)c(Cl)c2)ncn1 [6-(3,4-Dichloro-phenyl)-pyrimidine-4-carboxylic acid ((S)-2-hydroxy-1-methyl-ethyl)-amide] | 99.59%
C[C@H](O)CNC(=O)c1cc(-c2ccc(Cl)c(Cl)c2)ncn1 [6-(3,4-Dichloro-phenyl)-pyrimidine-4-carboxylic acid ((S)-2-hydroxy-propyl)-amide] | 86.83%
Cl.O=C(N[C@@H]1CCNC1)c1cc(-c2ccc(Cl)c(Cl)c2)ncn1 [6-(3,4-Dichloro-phenyl)-pyrimidine-4-carboxylic acid (R)-pyrrolidin-3-ylamide hydrochloride salt] | 95.94%
Cl.O=C(N[C@H]1CCNC1)c1cc(-c2ccc(Cl)c(Cl)c2)ncn1 [6-(3,4-Dichloro-phenyl)-pyrimidine-4-carboxylic acid (S)-pyrrolidin-3-ylamide hydrochloride salt] | 89.355%
O=C(N[C@@H]1CCOC1)c1cc(-c2ccc(Cl)c(Cl)c2)ncn1 [6-(3,4-Dichloro-phenyl)-pyrimidine-4-carboxylic acid (tetrahydro-furan-3R-yl)-amide] | 41.5%
O=C(N[C@H]1CCOC1)c1cc(-c2ccc(Cl)c(Cl)c2)ncn1 [6-(3,4-Dichloro-phenyl)-pyrimidine-4-carboxylic acid (tetrahydro-furan-3S-yl)-amide] | 53.41%
O=C(NC1CCOCC1)c1cc(-c2ccc(Cl)c(Cl)c2)ncn1 [6-(3,4-Dichloro-phenyl)-pyrimidine-4-carboxylic acid (tetrahydro-pyran-4-yl)-amide] | 55.35%
O=C(NCC1CCOCC1)c1cc(-c2ccc(Cl)c(Cl)c2)ncn1 [6-(3,4-Dichloro-phenyl)-pyrimidine-4-carboxylic acid (tetrahydro-pyran-4-ylmethyl)-amide] | 101.39%
O=C(Nc1nnco1)c1cc(-c2ccc(Cl)c(Cl)c2)ncn1 [6-(3,4-Dichloro-phenyl)-pyrimidine-4-carboxylic acid [1,3,4]oxadiazol-2-ylamide] | 101.93%
CC(NC(=O)c1cc(-c2ccc(Cl)c(Cl)c2)ncn1)c1ccc2c(c1)NC(=O)CO2 (stereo not shown) [6-(3,4-Dichloro-phenyl)-pyrimidine-4-carboxylic acid [1-(3-oxo-3,4-dihydro-2H-benzo[1,4]oxazin-6-yl)-ethyl]-amide] | 99.66%
O=C1CN(C(=O)CNC(=O)c2cc(-c3ccc(Cl)c(Cl)c3)ncn2)CCN1 [6-(3,4-Dichloro-phenyl)-pyrimidine-4-carboxylic acid [2-oxo-2-(3-oxo-piperazin-1-yl)-ethyl]-amide] | 62.23%
CC1CN(c2cccc(NC(=O)c3cc(-c4ccc(Cl)c(Cl)c4)ncn3)c2)CC(C)O1 (stereo not shown) [6-(3,4-Dichloro-phenyl)-pyrimidine-4-carboxylic acid [3-(2,6-dimethyl-morpholin-4-yl)-phenyl]-amide] | 57.56%
CN1CCN(c2cccc(NC(=O)c3cc(-c4ccc(Cl)c(Cl)c4)ncn3)c2)CC1.Cl [6-(3,4-Dichloro-phenyl)-pyrimidine-4-carboxylic acid [3-(4-methyl-piperazin-1-yl)-phenyl]-amide hydrochloride salt] | 85.89%
CN1CCN(c2cccc(NC(=O)c3cc(-c4ccc(Cl)c(Cl)c4)ncn3)c2)CC1 [6-(3,4-Dichloro-phenyl)-pyrimidine-4-carboxylic acid [3-(4-methyl-piperazin-1-yl)-phenyl]-amide] | 75.48%
CC1CN(c2ccc(NC(=O)c3cc(-c4ccc(Cl)c(Cl)c4)ncn3)cc2)CC(C)O1.Cl (stereo not shown) [6-(3,4-Dichloro-phenyl)-pyrimidine-4-carboxylic acid [4-(2,6-dimethyl-morpholin-4-yl)-phenyl]-amide hydrochloride salt] | 97.61%
Cl.O=C(Nc1ccc(OCCN2CCOCC2)cc1)c1cc(-c2ccc(Cl)c(Cl)c2)ncn1 [6-(3,4-Dichloro-phenyl)-pyrimidine-4-carboxylic acid [4-(2-morpholin-4-yl-ethoxy)-phenyl]-amide hydrochloride salt] | 90.48%
O=C(Nc1ccc(OCCN2CCOCC2)cc1)c1cc(-c2ccc(Cl)c(Cl)c2)ncn1 [6-(3,4-Dichloro-phenyl)-pyrimidine-4-carboxylic acid [4-(2-morpholin-4-yl-ethoxy)-phenyl]-amide] | 100.44%
CN1CCN(c2ccc(NC(=O)c3cc(-c4ccc(Cl)c(Cl)c4)ncn3)cc2)CC1.Cl [6-(3,4-Dichloro-phenyl)-pyrimidine-4-carboxylic acid [4-(4-methyl-piperazin-1-yl)-phenyl]-amide hydrochloride salt] | 89.6%
CC(C)(O)c1nnc(NC(=O)c2cc(-c3ccc(Cl)c(Cl)c3)ncn2)o1 [6-(3,4-Dichloro-phenyl)-pyrimidine-4-carboxylic acid [5-(1-hydroxy-1-methyl-ethyl)-[1,3,4]oxadiazol-2-yl]-amide] | 102.115%
Cl.O=C(Nc1ccc(OCCN2CCOCC2)nc1)c1cc(-c2ccc(Cl)c(Cl)c2)ncn1 [6-(3,4-Dichloro-phenyl)-pyrimidine-4-carboxylic acid [6-(2-morpholin-4-yl-ethoxy)-pyridin-3-yl]-amide hydrochloride salt] | 86.37%

Structure (SMILES) | % Inhibition at 10 uM
CNC(=O)c1cc(-c2ccc(Cl)c(Cl)c2)ncn1 [6-(3,4-Dichloro-phenyl)-pyrimidine-4-carboxylic acid methylamide] | 100.31%
O=C(Nc1ncco1)c1cc(-c2ccc(Cl)c(Cl)c2)ncn1 [6-(3,4-Dichloro-phenyl)-pyrimidine-4-carboxylic acid oxazol-2-yl-amide] | 101.04%
O=C(Nc1cnccn1)c1cc(-c2ccc(Cl)c(Cl)c2)ncn1 [6-(3,4-Dichloro-phenyl)-pyrimidine-4-carboxylic acid pyrazin-2-yl-amide] | 100.28%
O=C(Nc1cccnn1)c1cc(-c2ccc(Cl)c(Cl)c2)ncn1 [6-(3,4-Dichloro-phenyl)-pyrimidine-4-carboxylic acid pyridazin-3-yl-amide] | 100.38%
Cc1nc(C(=O)O)cc(-c2ccc(F)c(F)c2)n1 [6-(3,4-Difluoro-phenyl)-2-methyl-pyrimidine-4-carboxylic acid] | 100%
C[C@H](NC(=O)c1cc(-c2ccc(F)c(F)c2)ncn1)c1ccccc1 [6-(3,4-Difluoro-phenyl)-pyrimidine-4-carboxylic acid ((S)-1-phenyl-ethyl)-amide] | 100.39%
CON(C)C(=O)c1cc(-c2ccc(Cl)c(Cl)c2)ncn1 [6-(3,4-dichloro-phenyl)-pyrimidine-4-carboxylic acid methoxy-methyl-amide] | 103.74%
O=C(O)c1ncnc(-c2ccc(Cl)c(Cl)c2)c1CO [6-(3,4-dichlorophenyl)-5-(hydroxymethyl)pyrimidine-4-carboxylate] | 95%
O=C(NO)c1cc(-c2ccc(Cl)c(Cl)c2)ncn1 [6-(3,4-dichlorophenyl)-N-hydroxypyrimidine-4-carboxamide] | 73%
Cc1nnc(NC(=O)c2cc(-c3cccc(Br)c3)ncn2)o1 [6-(3-Bromo-phenyl)-pyrimidine-4-carboxylic acid (5-methyl-[1,3,4]oxadiazol-2-yl)-amide] | 102.59%
O=C(O)c1cc(-c2cccc(Br)c2)ncn1 [6-(3-Bromo-phenyl)-pyrimidine-4-carboxylic acid] | 102.1%
O=C(Nc1cccnc1)c1cc(-c2cccc(Cl)c2F)ncn1 [6-(3-Chloro-2-fluoro-phenyl)-pyrimidine-4-carboxylic acid pyridin-3-yl-amide] | 100.83%
C[C@H](NC(=O)c1cc(-c2ccc(F)c(Cl)c2)ncn1)c1ccccc1 [6-(3-Chloro-4-fluoro-phenyl)-pyrimidine-4-carboxylic acid ((S)-1-phenyl-ethyl)-amide] | 89.07%
Cc1noc(C)c1NC(=O)c1cc(-c2cccc(Cl)c2)ncn1 [6-(3-Chloro-phenyl)-pyrimidine-4-carboxylic acid (3,5-dimethyl-isoxazol-4-yl)-amide] | 89.92%
C[C@H](NC(=O)c1cc(-c2cccc(Cl)c2)ncn1)c1ccncc1 [6-(3-Chloro-phenyl)-pyrimidine-4-carboxylic acid ((S)-1-pyridin-4-yl-ethyl)-amide] | 96.86%
C[C@H](NC(=O)c1cc(-c2cccc(F)c2)ncn1)c1ccccc1 [6-(3-Fluoro-phenyl)-pyrimidine-4-carboxylic acid ((S)-1-phenyl-ethyl)-amide] | 90.15%
O=C(Nc1cncnc1)c1cc(-c2cccc(F)c2)ncn1 [6-(3-Fluoro-phenyl)-pyrimidine-4-carboxylic acid pyrimidin-5-yl-amide] | 81.88%
Cc1ccc(NC(=O)c2cc(-c3ccc(Cl)c(F)c3)ncn2)c(C)n1 [6-(4-Chloro-3-fluoro-phenyl)-pyrimidine-4-carboxylic acid (2,6-dimethyl-pyridin-3-yl)-amide] | 52.81%
C[C@H](NC(=O)c1cc(-c2ccc(Cl)c(F)c2)ncn1)c1ccccc1 [6-(4-Chloro-3-fluoro-phenyl)-pyrimidine-4-carboxylic acid ((S)-1-phenyl-ethyl)-amide] | 46.62%
C[C@H](NC(=O)c1cc(-c2ccc(Cl)cc2)ncn1)c1ccccc1 [6-(4-Chloro-phenyl)-pyrimidine-4-carboxylic acid ((S)-1-phenyl-ethyl)-amide] | 68.94%
